Test results: ChEMBL document CHEMBL1150503, “Design, synthesis and molecular modeling of 3-acylamino-2- Carboxyindole NMDA receptor glycine-site antagonists” (Bioorg Med Chem Lett, 1991)

The compounds below were run against Glutamate receptor ionotropic, NMDA 1 (Rattus norvegicus, UniProt P35439) (assay: Ability of compound to compete with [3H]glycine for the strychnine-insensitive NMDA receptor glycine binding sites on rat cortical and hippocampus).
Format: tissue-based

Question: `CN(C(=O)c1ccccc1)c1c(C(=O)O)[nH]c2cc(Cl)ccc12` was tested. Which IC50 did it give?
Answer: 0.11 µM

Question: Which IC50 does the source give for `CN(C(=O)c1ccccc1)c1c(C(=O)O)[nH]c2cc(Cl)cc(Cl)c12` here?
Answer: 0.27 µM

Question: Which IC50 does the source give for `O=C(Nc1c(C(=O)O)[nH]c2cc(Cl)ccc12)c1ccccc1` here?
Answer: 3 µM

Question: How did the IC50 turn out when `O=C(Nc1c(C(=O)O)[nH]c2cc(Cl)cc(Cl)c12)c1ccccc1` was run?
Answer: 17 µM

Question: With `O=C(O)C(=O)Nc1c(C(=O)O)[nH]c2cc(Cl)cc(Cl)c12` as the compound, how does the IC50 read?
Answer: 0.17 µM

Question: With `O=C(O)CSc1c(C(=O)O)[nH]c2cc(Cl)cc(Cl)c12` as the compound, how does the IC50 read?
Answer: 0.1 µM

Question: How did the IC50 turn out when `O=C(O)CN(C(=O)c1ccccc1)c1c(C(=O)O)[nH]c2cc(Cl)cc(Cl)c12` was run?
Answer: 0.4 µM

Question: `CN(C(=O)C(=O)O)c1c(C(=O)O)[nH]c2cc(Cl)cc(Cl)c12` was tested. Which IC50 did it give?
Answer: 9.5 µM

Question: For `O=C(O)c1cc(O)c2c(Cl)cc(Cl)cc2n1`, which IC50 is on record?
Answer: 0.14 µM
